Experimental data taken from US7276493B2, “Fungicide for treating plants” (Valent BioSciences Corporation, priority 2003, dated 2007).

Columns and labels:
[1] = system: Phaseolus vulgaris (Bush bean cv. Blue Lake 274); assay: Detached bean leaf bioassay, phytotoxicity rating; type: in vivo
Experimental: Compound solution: Compound solutions were prepared by diluting compound stock solutions (1.0% w/v compound in DMSO) to 200 ppm with 0.01% w/v Triton X-100. Plant material: Middle trifoliate leaves of greenhouse grown Phaseolus vulgaris (Bush bean cv. Blue Lake 274) were excised and placed on a plastic grid above a tray containing moist towels. Treatment method: One half of the adaxial surface of the leaf was treated with the compound solution (100:L) using a 3 cm Bacti Cell Spreader. A blank consisted of 0.01% w/v Triton X-100. A commercial fungicide control (200 ppm diluted with water) consisted of Scala. After the solutions dried, the trays containing the leaves were covered and held one day in a growth chamber (22C). The adaxial surfaces of the leaves were then inoculated with 5–60:L droplets of Botrytis cinerea spore solution. Phytotoxicity ratings: Phytotoxicity was rated as 0=no phytotoxicity, 1=slight phytotoxicity, 2=moderate phytotoxicity, or 3=excessive phytotoxicity (Table 2).

[2] = system: Botrytis cinerea; assay: Detached bean leaf bioassay, fungal control; type: in vivo; settings: detached bean leaf (Phaseolus vulgaris), three days after inoculation, 100 minus percent necrotic area
Experimental: Compound solution: Compound solutions were prepared by diluting compound stock solutions (1.0% w/v compound in DMSO) to 200 ppm with 0.01% w/v Triton X-100.
Spore solution preparation: Botrytis cinerea spores were taken from 6-week-old cultures grown at 22C on full strength potato dextrous agar (PDA) plates and harvested in 1:16 frozen orange juice concentrate:water. Botrytis cinerea spore solutions were prepared by diluting spore cultures to 5×10^4 spores/mL with 1:16 frozen orange juice concentrate:water.
Plant material: Middle trifoliate leaves of greenhouse grown Phaseolus vulgaris (Bush bean cv. Blue Lake 274) were excised and placed on a plastic grid above a tray containing moist towels.
Treatment method: One half of the adaxial surface of the leaf was treated with the compound solution (100:L) using a 3 cm Bacti Cell Spreader. A blank consisted of 0.01% w/v Triton X-100. A commercial fungicide control (200 ppm diluted with water) consisted of Scala. […]
Fungal control rating: Three days after inoculation with Botrytis, the percent necrotic area under the inoculation droplet was determined. Since the areas under the blank (0.01% w/v Triton X-100) were 100% infected, fungal control was expressed as 100 minus the percent necrotic area, and thus 0% infected is 100% fungal control (n=3 leaves/compound, 5 inoculation droplets/leaf, Table 2).

[3] = system: Botrytis cinerea; assay: Contact evaluation (microtiter plate); type: cell-based; design: key: Full: fungal inhibition was rated as full, partial, or none; Partial: fungal inhibition was rated as full, partial, or none; None: fungal inhibition was rated as full, partial, or none
Experimental: (§1) Compound solution: Contact evaluations were conducted to determine the anti-fungal activity of each compound against Botrytis cinerea, Sclerotinia sclerotiorum, Pythium aphanidermatum, Rhizoctonia solani, Cercospora arachidicola, Mycosphaerella fijiensis, and Monilinia laxa. Five milligrams of each compound were dissolved in 0.5 milliliter of DMSO for a compound stock solution of 1.0% w/v. Compound stock solutions were serial diluted with DMSO to 20, 10, and 2 ppm final well concentration. Fungi preparation: Botrytis cinerea spores were taken from 6-week-old cultures grown at 22C on full strength potato dextrous agar (PDA) plates. Sclerotinia sclerotiorum, Pythium aphanidermatum, Rhizoctonia solani, and Monilinia laxa mycelia were taken from 4- to 10-day-old shake flask cultures grown at room temperature on full strength potato dextrous broth (PDB). Cercospora arachidicola mycelia were taken from 10- to 14-day-old shake flask cultures grown at room temperature on a full strength PDB amended with peanut oil. Mycosphaerella fijiensis mycelia were taken from 10- to 14-day-old shake flask cultures grown at room temperature on V8 juice broth. Sclerotinia sclerotiorum, Pythium aphanidermatum, Rhizoctonia solani, Cercospora arachidicola, and Mycosphaerella fijiensis mycelia (0.4 g mycelia) were blended for 45 seconds in 20 mL sterile de-ionized water. Monilinia laxa mycelia (1 g mycelia) was blended for 45 seconds in 30 mL of sterile de-ionized water. Botrytis cinerea spores were diluted with quarter strength PDB to 1×10^5 spores/mL final well concentration. All mycelia were diluted in water (1:5 mycelia:water) before distributing into the wells. Microtiter plate preparation: Compound solution (10:L), quarter strength PDB (900:L) and fungi preparation (100:L) were sequentially distributed into 48-well microtiter plates (n=3 replications/compound/rate). A blank consisted of quarter strength PDB and fungi preparation. Commercial fungicide controls (100 ppm diluted with water) consisted of Scala for Botrytis cinerea, Dithane F-45 for Mycosphaerella fijiensis, and Benlate for Sclerotinia sclerotiorum, Pythium aphanidermatum, Rhizoctonia solani, Cercospora arachidicola, and Monilinia laxa. Plates were shaken in a circular rotator at room temperature for 20 minutes, then incubated at 25C for 24 to 72 hours, depending on the pathogen. Fungal control ratings: Fungal growth in wells containing the compounds were compared to the positive control and fungal inhibition was rated as full, partial, or none. Final readings were the average of the three wells (Table 1).

[4] = system: Monilinia laxa; assay: Contact evaluation (microtiter plate); type: cell-based; design: key: Full: fungal inhibition was rated as full, partial, or none; Partial: fungal inhibition was rated as full, partial, or none; None: fungal inhibition was rated as full, partial, or none
Experimental: as §1

[5] = system: Rhizoctonia solani; assay: Contact evaluation (microtiter plate); type: cell-based; design: key: Full: fungal inhibition was rated as full, partial, or none; Partial: fungal inhibition was rated as full, partial, or none; None: fungal inhibition was rated as full, partial, or none; settings: Rhizoctinia solani
Experimental: as §1

[6] = system: Cercospora arachidicola; assay: Contact evaluation (microtiter plate); type: cell-based; design: key: Full: fungal inhibition was rated as full, partial, or none; Partial: fungal inhibition was rated as full, partial, or none; None: fungal inhibition was rated as full, partial, or none
Experimental: as §1

[7] = system: Mycosphaerella fijiensis; assay: Contact evaluation (microtiter plate); type: cell-based; design: key: Full: fungal inhibition was rated as full, partial, or none; Partial: fungal inhibition was rated as full, partial, or none; None: fungal inhibition was rated as full, partial, or none
Experimental: as §1

[8] = system: Pythium aphanidermatum; assay: Contact evaluation (microtiter plate); type: cell-based; design: key: Full: fungal inhibition was rated as full, partial, or none; Partial: fungal inhibition was rated as full, partial, or none; None: fungal inhibition was rated as full, partial, or none
Experimental: as §1

[9] = system: Sclerotinia sclerotiorum; assay: Contact evaluation (microtiter plate); type: cell-based; design: key: Full: fungal inhibition was rated as full, partial, or none; Partial: fungal inhibition was rated as full, partial, or none; None: fungal inhibition was rated as full, partial, or none; settings: Sclerotinia sclerotionum
Experimental: as §1

C/C1=C\C=C\CCC(C)CNC(=O)/C=C/C=C/C(C)C(O)C/C=C(\C)C1 (centres unmarked) [formula I]
Phytotoxity (200 ppm) [1]: None
Botrytis cinerea control (200 ppm) [2]: 31%
Control of fungi (full, partial, none) ([3]; fungicide rate 2 ppm): Full
Control of fungi (full, partial, none) ([3]; fungicide rate 10 ppm): Full
Control of fungi (full, partial, none) ([3]; fungicide rate 20 ppm): Full
Control of fungi (full, partial, none) ([4]; fungicide rate 2 ppm): Full
Control of fungi (full, partial, none) ([4]; fungicide rate 10 ppm): Full
Control of fungi (full, partial, none) ([4]; fungicide rate 20 ppm): Full
Control of fungi (full, partial, none) ([5]; fungicide rate 2 ppm): Full
Control of fungi (full, partial, none) ([5]; fungicide rate 10 ppm): Full
Control of fungi (full, partial, none) ([5]; fungicide rate 20 ppm): Full
Control of fungi (full, partial, none) ([6]; fungicide rate 2 ppm): Full
Control of fungi (full, partial, none) ([6]; fungicide rate 10 ppm): Full
Control of fungi (full, partial, none) ([6]; fungicide rate 20 ppm): Full
Control of fungi (full, partial, none) ([7]; fungicide rate 2 ppm): Full
Control of fungi (full, partial, none) ([7]; fungicide rate 10 ppm): Full
Control of fungi (full, partial, none) ([7]; fungicide rate 20 ppm): Full
Control of fungi (full, partial, none) ([8]; fungicide rate 2 ppm): Full
Control of fungi (full, partial, none) ([8]; fungicide rate 10 ppm): Full
Control of fungi (full, partial, none) ([8]; fungicide rate 20 ppm): Full
Control of fungi (full, partial, none) ([9]; fungicide rate 2 ppm): Full
Control of fungi (full, partial, none) ([9]; fungicide rate 10 ppm): Full
Control of fungi (full, partial, none) ([9]; fungicide rate 20 ppm): Full
